{"source": "patent US7109244B2", "about": "“Compositions and methods comprising long-chain, straight-chain 2-amino-3-hydroxyalkanes” (priority 1997, dated 2006)", "key": {"[1]": {"test_system": "L1210 murine lymphocytic leukemia cells", "test": "L1210 cytotoxicity assay (inhibition of growth)", "type": "cell-based", "experimental": "The morphological effect was usually measured 30–35 h after the start of the assay and again about 24 h later, while the cytotoxicity was determined when the number of cells in the controls reached approximately 8000, usually in 3 days after the assay was begun. It should be noted that the pointed cells were live cells and that they were counted as such for the cytotoxicity reading. […] All morphologically-changed cells were counted in the pointed cell percentage.\nCytotoxicity assays against L1210 murine lymphocytic leukemia cells were performed by dissolving the samples in methanol and/or hexane were applied to the dry assay wells and the solvent was allowed to evaporate. Cells (1000) were added in minimum essential medium (MEM, 1 ml) and incubated 37° C. Inhibition of growth was recorded as the estimated percentage of living cells in sample wells versus that in control wells."}, "[2]": {"test_system": "L1210 murine lymphocytic leukemia cells", "test": "L1210 morphological change (pointed cells)", "type": "cell-based", "settings": "for % Pointed cells: percent of the living cells; for % Pointed Cells 1st: 27 h", "experimental": "Referring to FIG. 1, in the L1210 assay some of the cells changed from being spherical (FIG. 1A) to ovoid with long points approximately […] apart (FIG. 1B). Several other forms have also been observed in assays of these extracts, including cells with points not […] apart (FIG. 1C), cells with more than two points (FIG. 1D), cells with a bulge (FIG. 1E) and cells with a bulge replacing one of the points (FIG. 1F). However, the form with two sharp, opposing points was by far the predominant and characteristic one observed. This type of morphological change had not previously been observed during the screening of over 1000 marine extracts.\nAs discussed above, the spisulosines caused a distinct morphological change in L1210 leukemia cells, in addition to cytotoxicity. This bioactivity, which was recorded as the percentage of living cells in which altered morphology was observed, could be observed sometimes as early as 13 h after the start of the assay and reached a maximum at 50–60 h, after which it decreased. […] The morphological effect was usually measured 30–35 h after the start of the assay and again about 24 h later, while the cytotoxicity was determined when the number of cells in the controls reached approximately 8000, usually in 3 days after the assay was begun. It should be noted that the pointed cells were live cells and that they were counted as such for the cytotoxicity reading. Also, assays in which 100% cytotoxicity was recorded may still have contained live cells (<0.5%) which may or may not have been pointed. All morphologically-changed cells were counted in the pointed cell percentage.\nMorphologically-changed cells (FIGS. 1A–1F) were counted as living cells when determining the percent inhibition of growth. Morphological changes were assessed throughout the assay period. The percentage of pointed cells was determined by counting the number of altered cells in approximately 60 living cells. This percentage varied with the length of time the assay had been running. It generally reached its maximum about 50 hours after the start of the assay, but pointed cells could be observed as early as 13 hours after the start of the assay and could usually still be seen when the percent growth inhibition was measured. The percentages of pointed cells were often counted both after about 35 and after 55 hours. The time that this measurement was made is indicated with the data."}, "P-388": {"test_system": "P-388", "test": "in vitro tumor cell line activity, P-388", "type": "cell-based"}, "HT-29": {"test_system": "HT-29", "test": "in vitro tumor cell line activity, HT-29", "type": "cell-based"}, "Vero cells": {"test_system": "Vero cells", "test": "microfilament and microtubule staining in Vero cells (Example B)", "type": "cell-based", "settings": "0.5 mM, 4 hours", "experimental": "In order to identify the organization of the microfilament and microtubule organization in cells treated with spisulosine 285, cells were stained with phalloidin to detect actin polymers, and an antitubulin antibody to detect tubulin.\nVero cells were incubated in the presence (panel b, d) or absence (a, c) of 0.5 mM spisulosine 285 for 4 hours. Cells grown in coverslips were fixed with methanol at −20° C. (for tubulin antibody) or with 4% paraformaldehyde in phosphate buffered saline PBS (w/v) for phalloidin incubation. In the second case the cells were washed with 0.2% Triton X100 in PBS. The coverslips were washed with PBS and incubated for 1 hour at room temperature with the tubulin antibody (diluted 1/1000 in PBS) or with phalloidin (1 mg/ml). After washing with PBS the coverslips incubated with the tubulin antibody were overlaid with fluorescein or Texas red-labelled goat antimouse antibodies (diluted 1:50 in PBS). The coverslips were mounted with Mowiol and stored in the dark at 4° C. until observation."}, "[3]": {"test_system": "human prostate cancer (PC-3)", "test": "xenograft model of human prostate cancer", "type": "in vivo", "settings": "for % T/C / Comments: intraperitoneal", "experimental": "(§1) Spisulosine 285 was tested in in vivo studies against xenograft models of human prostate cancer (PC-3) and human renal cancer (MRI-H-121). These models use subcutaneously implanted solid human tumors that grow and increase in volume over time. The mean volume of tumor growth in control animals provides the basis for comparison. […] A level of activity that is less than 40% T/C is considered statistically significant. The doses of spisulosine used were given at the maximum tolerated, non lethal dose (MTD), ½ MTD and ¼ MTD. Delivery of the drug was by the intraperitoneal route."}, "[4]": {"test_system": "human renal cancer (MRI-H-121)", "test": "xenograft model of human renal cancer", "type": "in vivo", "settings": "for % T/C / Comments: intraperitoneal", "experimental": "as §1"}, "PANC-1": {"test_system": "PANC-1", "test": "expanded in vitro screen, PANC-1", "type": "cell-based", "settings": "Homo sapiens; PANC-1, Pancreas, solid", "experimental": "(§2) An expanded in vitro screen was performed of spisulosine 285 against a series of different cell lines."}, "SK-OV-3": {"test_system": "SK-OV-3", "test": "expanded in vitro screen, SK-OV-3", "type": "cell-based", "settings": "Homo sapiens; SK-OV-3, Ovary, solid", "experimental": "as §2"}, "P3HR1": {"test_system": "P3HR1", "test": "expanded in vitro screen, P3HR1", "type": "cell-based", "settings": "Homo sapiens, P3HR-1; P3HR1, Burkitts", "experimental": "as §2"}, "SW684": {"test_system": "SW684", "test": "expanded in vitro screen, SW684", "type": "cell-based", "settings": "Homo sapiens; SW684, Fibrosarcoma", "experimental": "as §2"}, "U-937": {"test_system": "U-937", "test": "expanded in vitro screen, U-937", "type": "cell-based", "settings": "Homo sapiens; U-937, Lymphoma", "experimental": "as §2"}, "ARH77": {"test_system": "ARH77", "test": "expanded in vitro screen, ARH77", "type": "cell-based", "settings": "Homo sapiens, ARH-77; ARH77, Leukemia", "experimental": "as §2"}}, "note": "Like-named read-outs stand apart in the source and are kept apart here."}
{"smiles": "CCCCCCCCCCCCCCC[C@@H](O)[C@H](C)N", "note": "[Spisulosine 285, (2S,3R)-2-Amino-3-octadecanol]", "values": [{"measurement": "cytotoxicity at 0.01 µg/mL", "setting": "[1]; Mus musculus, L1210, 0.01 μg/ml", "value": 45, "unit": "%"}, {"measurement": "cytotoxicity at […]", "setting": "[1]; Mus musculus, L1210, 0.025 μg/ml", "value": 90, "unit": "%"}, {"measurement": "cytotoxicity at 0.05 µg/mL", "setting": "[1]; Mus musculus, L1210, 0.05 μg/ml", "value": 96, "unit": "%"}, {"measurement": "cytotoxicity at 0.1 µg/mL", "setting": "[1]; Mus musculus, L1210, 0.1 μg/ml", "value": 99, "unit": "%"}, {"measurement": "inhibition at 0.1 µg/mL", "setting": "[1]; Mus musculus, L1210, 0.1 μg/ml, read-out: % Inhibitiion", "value": 63, "unit": "%"}, {"measurement": "cytotoxicity at […]", "setting": "[1]; Mus musculus, L1210, 0.25 μg/ml", "value": 99, "unit": "%"}, {"measurement": "inhibition at […]", "setting": "[1]; Mus musculus, L1210, 0.25 μg/ml, read-out: % Inhibitiion", "value": 96, "unit": "%"}, {"measurement": "cytotoxicity at 0.5 µg/mL", "setting": "[1]; Mus musculus, L1210, 0.5 μg/ml", "value": 100, "unit": "%"}, {"measurement": "inhibition at 0.5 µg/mL", "setting": "[1]; Mus musculus, L1210, 0.5 μg/ml, read-out: % Inhibitiion", "value": 99, "unit": "%"}, {"measurement": "inhibition at 1 µg/mL", "setting": "[1]; Mus musculus, L1210, 1 μg/ml, read-out: % Inhibitiion", "value": 100, "unit": "%"}, {"measurement": "inhibition at […]", "setting": "[1]; Mus musculus, L1210, 2.5 μg/ml, read-out: % Inhibitiion", "value": 100, "unit": "%"}, {"measurement": "inhibition at 5 µg/mL", "setting": "[1]; Mus musculus, L1210, 5 μg/ml, read-out: % Inhibitiion", "value": 100, "unit": "%"}, {"measurement": "L1210 cytotoxicity (in words)", "setting": "[1]; listed as 1", "value": "showed both cytotoxicity and morphological alteration"}, {"measurement": "L1210 morphological alteration / pointed cell activity (in words)", "setting": "[2]", "value": "pointed cell activity"}, {"measurement": "% Pointed cells", "setting": "[2]; 0.01 μg/ml", "value": 1, "unit": "%"}, {"measurement": "% Pointed cells", "setting": "[2]; 0.05 μg/ml", "value": 71, "unit": "%"}, {"measurement": "% Pointed Cells 1st", "setting": "[2]; 0.1 μg/ml", "value": 33, "unit": "%"}, {"measurement": "% Pointed cells", "setting": "[2]; 0.1 μg/ml", "value": 62, "unit": "%"}, {"measurement": "% Pointed Cells 1st", "setting": "[2]; 0.5 μg/ml", "value": 56, "unit": "%"}, {"measurement": "% Pointed cells", "setting": "[2]; 0.5 μg/ml", "value": 97, "unit": "%"}, {"measurement": "% Pointed Cells 1st", "setting": "[2]; 1 μg/ml", "value": 64, "unit": "%"}, {"measurement": "% Pointed Cells 1st", "setting": "[2]; 5 μg/ml", "value": "ad"}, {"measurement": "active against tumor cell line in vitro (concentration)", "setting": "P-388", "value": 0.01, "unit": "mg/mL"}, {"measurement": "active against tumor cell line in vitro (concentration)", "setting": "HT-29", "value": 0.05, "unit": "mg/mL"}, {"measurement": "actin (phalloidin stain)", "setting": "Vero cells", "value": "dramatic decrease in actin"}, {"measurement": "microtubule network (tubulin antibody)", "setting": "Vero cells", "value": "remains in a polymerised form"}, {"measurement": "effect on tumour size (in words)", "setting": "[3]; at higher doses", "value": "significantly reducing the tumour size"}, {"measurement": "% T/C", "setting": "[3]; total dose 2.499 mg/kg, day 15", "value": 223, "unit": "%"}, {"measurement": "% T/C", "setting": "[3]; total dose 5.010 mg/kg, day 11", "value": "−1", "unit": "%"}, {"measurement": "Comments", "setting": "[3]; total dose 5.010 mg/kg, day 11", "value": "stasis (complete remission)"}, {"measurement": "% T/C", "setting": "[3]; total dose 9.990 mg/kg, day 11", "value": "−21", "unit": "%"}, {"measurement": "Comments", "setting": "[3]; total dose 9.990 mg/kg, day 11", "value": "stasis (complete remission)"}, {"measurement": "effect on tumour growth (in words)", "setting": "[4]; effects continuing up to a few weeks after the last dose", "value": "reduces the growth of the human renal cancer"}, {"measurement": "% T/C", "setting": "[4]; total dose 2.499 mg/kg, day 15", "value": 43, "unit": "%"}, {"measurement": "% T/C", "setting": "[4]; total dose 5.010 mg/kg, day 11", "value": 35, "unit": "%"}, {"measurement": "Comments", "setting": "[4]; total dose 5.010 mg/kg, day 11", "value": "inhibition (partial"}, {"measurement": "% T/C", "setting": "[4]; total dose 9.990 mg/kg, day 11", "value": 28, "unit": "%"}, {"measurement": "Comments", "setting": "[4]; total dose 9.990 mg/kg, day 11", "value": "inhibition (partial"}, {"measurement": "IC50", "setting": "PANC-1", "value": 1.71, "unit": "pM"}, {"measurement": "IC50", "setting": "SK-OV-3", "value": 14, "unit": "pM"}, {"measurement": "IC50", "setting": "P3HR1", "value": 67.3, "unit": "pM"}, {"measurement": "IC50", "setting": "SW684", "value": 1050, "unit": "pM"}, {"measurement": "IC50", "setting": "U-937", "value": 19.6, "unit": "pM"}, {"measurement": "IC50", "setting": "ARH77", "value": 13.6, "unit": "pM"}]}
